Source: patent publication US7514452B2, “2-furancarboxylic acid hydrazides and pharmaceutical compositions containing the same” (Dainippon Pharmaceutical Co., Ltd, priority 2002, dated 2009)

Key:
glucagon receptor [1] = biological target: glucagon receptor (Mus musculus, UniProt Q61606); assay: Experiment for glucagon binding inhibition, mouse hepatic membrane (125I-glucagon); details: male ddY mouse hepatic membrane, 125I-glucagon 50 pM, 25° C. for 30 minutes; read-out: Glucagon binding inhibitory activity IC50 (nM) Mouse
glucagon receptor (Mus musculus, UniProt Q61606), sequence (Q61606 27-485): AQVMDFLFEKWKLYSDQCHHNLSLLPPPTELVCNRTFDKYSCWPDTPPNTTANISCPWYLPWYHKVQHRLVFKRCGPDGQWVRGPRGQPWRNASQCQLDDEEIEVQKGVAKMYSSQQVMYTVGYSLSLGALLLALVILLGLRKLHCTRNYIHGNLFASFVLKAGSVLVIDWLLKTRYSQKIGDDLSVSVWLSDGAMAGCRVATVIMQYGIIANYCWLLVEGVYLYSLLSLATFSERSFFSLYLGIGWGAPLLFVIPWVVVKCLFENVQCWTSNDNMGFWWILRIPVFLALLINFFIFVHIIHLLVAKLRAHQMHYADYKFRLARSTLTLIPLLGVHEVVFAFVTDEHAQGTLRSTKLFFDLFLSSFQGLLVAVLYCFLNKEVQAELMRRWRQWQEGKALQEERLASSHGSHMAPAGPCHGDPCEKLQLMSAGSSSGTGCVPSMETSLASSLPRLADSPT
Outline: (§1)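 Liver membranes from male SD rats or male ddY mice were incubated with 125I-glucagon and compound for 30 min at 25 °C. Bound radioactivity was collected on filters washed with pH 7.2 Tris-HCl and counted by γ counter, in duplicate. IC50 was taken from a pseudo Hill plot.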

glucagon receptor [2] = biological target: glucagon receptor (Rattus norvegicus, UniProt P30082); assay: Experiment for glucagon binding inhibition, rat hepatic membrane (125I-glucagon); details: male SD rat hepatic membrane, 125I-glucagon 50 pM, 25° C. for 30 minutes; read-out: Glucagon binding inhibitory activity IC50 (nM) Rat
glucagon receptor (Rattus norvegicus, UniProt P30082), sequence (P30082 27-485): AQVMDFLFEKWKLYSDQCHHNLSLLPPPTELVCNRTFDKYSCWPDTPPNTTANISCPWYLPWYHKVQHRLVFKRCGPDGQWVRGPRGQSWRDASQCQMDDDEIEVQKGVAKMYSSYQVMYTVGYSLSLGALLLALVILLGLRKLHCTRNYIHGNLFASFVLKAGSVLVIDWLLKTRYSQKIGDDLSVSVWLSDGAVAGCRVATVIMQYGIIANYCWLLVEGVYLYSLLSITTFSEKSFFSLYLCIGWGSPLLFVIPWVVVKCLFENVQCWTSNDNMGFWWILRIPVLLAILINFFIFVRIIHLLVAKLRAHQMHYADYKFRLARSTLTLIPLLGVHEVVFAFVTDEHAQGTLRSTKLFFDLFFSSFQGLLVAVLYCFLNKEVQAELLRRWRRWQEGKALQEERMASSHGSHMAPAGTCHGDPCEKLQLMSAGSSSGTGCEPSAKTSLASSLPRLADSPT
Outline: as §1

SMILES | IC50 (glucagon receptor [1]) [nM] | IC50 (glucagon receptor [2]) [nM] | melting point [°C]
C=CCOc1cccc(-c2ccoc2C(=O)NNC(=O)c2ccc(O)c([N+](=O)[O-])c2)c1 [Example 199, 3-[3-(2-Allyloxy)phenyl]-2-furancarboxylic acid 2-(4-hydroxy-3-nitrobenzoyl)hydrazide] | 75 | 99 | 126 to 131
O=C(NNC(=O)c1occc1-c1ccc2[nH]ccc2c1)c1ccc(O)c([N+](=O)[O-])c1 [Example 207] | 9.5 | 8 | 129 to 131
Cn1ccc2cc(-c3ccoc3C(=O)NNC(=O)c3ccc(O)c([N+](=O)[O-])c3)ccc21 [Example 208] | 270 | 290 | 185 to 187
O=C(NNC(=O)c1occc1-c1cccc(-c2ccccc2)c1)c1ccc(O)c([N+](=O)[O-])c1 [Example 218] | 56 | 95 | 143 to 147
O=C(NNC(=O)c1oc(Br)cc1-c1ccccc1)c1ccc(O)c([N+](=O)[O-])c1 [Example 222, 5-bromo-3-phenyl-2-furancarboxylic acid 2-(4-hydroxy-3-nitrobenzoyl)hydrazide] | 42 | 25 | 174 to 176
Cc1cc(C)cc(COc2cccc(-c3ccoc3C(=O)NNC(=O)c3ccc(O)c([N+](=O)[O-])c3)c2)c1 [Example 223] | 26 | 12 | 178 to 180
CC(c1ccccc1)c1cccc(-c2ccoc2C(=O)NNC(=O)c2ccc(O)c([N+](=O)[O-])c2)c1 (stereo not drawn) [Example 230] | 120 | 33 | 147 to 149
O=C(NNC(=O)c1occc1-c1cccc(CCc2ccccc2)c1)c1ccc(O)c([N+](=O)[O-])c1 [Example 232] | 34 | 38 | 149 to 152
Cc1cccc(Cc2cccc(-c3ccoc3C(=O)NNC(=O)c3ccc(O)c([N+](=O)[O-])c3)c2)c1 [Example 235] | 18 | 49 | 149 to 151
Cc1ccc(-c2ccoc2C(=O)NNC(=O)c2ccc(O)c(C(F)(F)F)c2)cc1 [Example 240] | 180 | 300 | 120 to 123
CCCc1ccc(-c2ccoc2C(=O)NNC(=O)c2ccc(O)c(C(F)(F)F)c2)cc1 [Example 242] | 180 | 89 | 112 to 114
CCCCCOc1ccc(-c2ccoc2C(=O)NNC(=O)c2ccc(O)c(F)c2)cc1 [Example 243] | 290 | 380 | 103 to 106

Other lines, results leading:

IC50 (glucagon receptor [1]) [nM] | IC50 (glucagon receptor [2]) [nM] | melting point [°C] | SMILES
7.7 | 7.9 | 152 to 153 | O=C(NNC(=O)c1occc1-c1cccc(OCc2cccc3ccccc23)c1)c1ccc(O)c([N+](=O)[O-])c1 [Example 203]
5.4 | 3.6 | 198 to 199 | O=C(NNC(=O)c1occc1-c1cccc(OCc2ccc3ccccc3c2)c1)c1ccc(O)c([N+](=O)[O-])c1 [Example 204]
35 | 20 | 90 to 94 | O=C(NNC(=O)c1occc1-c1cccc(OCCc2ccccc2)c1)c1ccc(O)c([N+](=O)[O-])c1 [Example 209, 3-(3-phenethyloxyphenyl)-2-furancarboxylic acid 2-(4-hydroxy-3-nitrobenzoyl)hydrazide]
7.9 | 3.9 | 154 to 157 | O=C(NNC(=O)c1occc1-c1ccc(Cc2ccccc2)cc1)c1ccc(O)c([N+](=O)[O-])c1 [Example 210, 3-(4-benzylphenyl)-2-furancarboxylic acid 2-(4-hydroxy-3-nitrobenzoyl)hydrazide]
25 | 8.5 | 184 to 185 | Cc1ccc(COc2ccc(-c3ccoc3C(=O)NNC(=O)c3ccc(O)c([N+](=O)[O-])c3)cc2)cc1 [Example 211]
80 | 35 | 177 to 179 | Cc1ccccc1COc1ccc(-c2ccoc2C(=O)NNC(=O)c2ccc(O)c([N+](=O)[O-])c2)cc1 [Example 213]
39 | 49 | 162 to 164 | Cc1cccc(COc2ccc(-c3ccoc3C(=O)NNC(=O)c3ccc(O)c([N+](=O)[O-])c3)cc2)c1 [Example 214]
37 | 60 | 135 to 139 | O=C(NNC(=O)c1occc1-c1ccc2ccccc2c1)c1ccc(O)c([N+](=O)[O-])c1 [Example 217]
48 | 27 | 100 to 101 | Cc1cccc(C)c1COc1cccc(-c2ccoc2C(=O)NNC(=O)c2ccc(O)c([N+](=O)[O-])c2)c1 [Example 224]
68 | 11 | 97 to 99 | O=C(NNC(=O)c1occc1-c1cccc(Cc2ccccc2Cl)c1)c1ccc(O)c([N+](=O)[O-])c1 [Example 225]
31 | 21 | 87 to 89 | CCOc1ccccc1Cc1cccc(-c2ccoc2C(=O)NNC(=O)c2ccc(O)c([N+](=O)[O-])c2)c1 [Example 226]
58 | 28 | 135 to 138 | Cc1ccccc1Cc1cccc(-c2ccoc2C(=O)NNC(=O)c2ccc(O)c([N+](=O)[O-])c2)c1 [Example 229]
56 | 39 | 102 to 104 | COc1ccc(Cc2cccc(-c3ccoc3C(=O)NNC(=O)c3ccc(O)c([N+](=O)[O-])c3)c2)cc1 [Example 234]
64 | 29 | 163 to 164 | O=C(NNC(=O)c1occc1-c1ccc(OCc2ccccc2)cc1)c1ccc(O)c([N+](=O)[O-])c1 [Example 245]
